Results as given in publication PMC7094215, “Synthesis and Evaluation of Antileishmanial and Cytotoxic Activity of Benzothiopyrane Derivatives” (Molecules, 2020).
Like-named read-outs stand apart in the source and are kept apart here.

Legend:
[1] = tested on: human monocytes (U-937 ATCC CRL-1593.2); experiment: Cytotoxic activity, MTT method; type: cell-based; conditions: 72 h
Description: (§1) Cytotoxicity of the compounds was evaluated on human monocytes (U-937 ATCC CRL-1593.2) in an exponential growth phase and adjusted at 1 × 10^5 cells/mL in RPMI-1640 enriched with 10% fetal bovine serum (FBS). One hundred microliters of cell suspension were dispensed in each well of a 96-wells microplate, and then 100 μL of 200-50-12.5 and 3.125 μg/mL concentration of each compound or standard drug (amphotericin B) were added dissolved in PBS with 0.5% DMSO. Cell exposed to compounds or standard drugs were incubated 72 h at 37 °C and 5% of CO2. Cytotoxic activity of each compound was determined according to the effect on the cell viability by the MTT microenzymatic method in which 3-(4,5-dimethylthiazol-2-yl)-2,5-diphenyltetrazolium bromide is reduced to a purple formazan product by mitochondrial enzyme succinate dehydrogenase. Thus, 10 μL/well of MTT solution (5 mg/mL) was added to each well of exposed and unexposed cells, and plates were incubated at 37 °C, 5% CO2 during 3 h. The reaction was stopped by adding 100 μL/well of isopropanol with 50% and 10% of SDS (sodium dodecyl sulfate). The concentration of formazan was determined spectrophotometrically at 570 nm (Varioskan, Thermo, Waltham, MA, USA) and intensity of color (absorbance) was registered as O.D. Cells exposed to control drug (amphotericin B) were used as control for toxicity (positive control) while cell incubated in the absence of any compound or drug were used as control for viability (negative control). Non-specific absorbance was corrected by subtracting absorbance (O.D) of the blank. Determinations were done by triplicate in at least two independent experiments.
(§2) Cytotoxicity was determined according to viability and mortality percentages obtained for each experimental condition (synthesized compounds, amphotericin B, and culture medium). Results were expressed as the mean lethal concentrations (LC50), the concentration necessary to kill 50% of cells, calculated by the parametric method of linear regression that permits doses-response analysis (Probit analysis).
(§3) Initially, viability percentages were calculated by Equation (1), where the O.D of control well, corresponds to 100% of viability:(1) % Viability=(O.D. exposed cells/O.D. unexposed cells)×100
(§4) Then, the percentage of cell growth inhibition was calculated using Equation (2):(2) % Inhibition =100−(% Viability)
(§5) The toxicity was defined according to LC50 values, using the follow scale: Toxic; LC50 < 100 μM; moderately toxic; LC50 > 100 μM and < 200 μM and potentially nontoxic; LC50 > 200 μM.

[2] = tested on: intracellular amastigotes of L. panamensis (MHOM/CO/87/UA140-EGFP strain); experiment: In vitro antileishmanial activity on intracellular amastigotes (GFP, flow cytometry); type: cell-based, Leishmania (V) panamensis; conditions: for EC50: intracellular amastigotes in U-937 cells, 72 h exposure, mean ± SD, Probit; for SI (Selectivity Index = LC50/EC50): LC50 U-937 / EC50 L. panamensis amastigotes
Description: Antileishmanial activity of compounds was determined according to the ability of the compound to reduce the infection by L. panamensis parasites. For this, the antileishmanial activity was tested on intracellular amastigotes of L. panamensis transfected with the green fluorescent protein gene (MHOM/CO/87/UA140-EGFP strain). Briefly, U-937 human cells at a density of 3 × 10^5 cells/mL in RPMI 1640 and 0.1 μg/mL of PMA (phorbol-12-myristate-13-acetate) were dispensed on 24-wells microplate and then infected with stationary phase growing L. panamensis promastigotes in 15:1 parasites per cell ratio. Plates were incubated at 34 °C and 5% CO2 for 3 h, and then cells were washed twice with phosphate buffer solution (PBS) to eliminate not internalized parasites. Fresh RPMI-1640 was added into each well (1 mL), and plates were incubated again. After 24 h of infection, the RPMI-1640 medium was replaced by fresh culture medium containing each compound at four serial dilutions (50, 12.5, 3.125 and 0.78 μg/mL) and plates were then incubated at 37 °C and 5% CO2 during 72 h, then, cells were removed from the bottom plate with 100 µL of EDTA/trypsin (250 mg) solution. The cells were centrifuged at 1100 rpm during 10 min at 4 °C, the supernatant was discarded, and cells were washed with 1 mL of cold PBS and centrifuged at 1100 rpm for 10 min at 4 °C. Cells were washed two times employing PBS, as previously, and after the last wash, the supernatant was discarded, and cells were suspended in 500 μL of PBS.
Cells were analyzed by flow cytometry employing a flow cytometer (FC 500MPL, Cytomics, Beckman Coulter. Pasadena, CA, USA) reading at 488 nm (exciting) and 525 nm (emitting) over an argon laser and counting 10,000 events. Infected cells were determined according to the events for green fluorescence (parasites). All determinations for each compound and standard drug were carried out by triplicate, in two experiments. Infected cells exposed to control drug (amphotericin B) were used as the control for antileishmanial activity (positive control), while infected cells incubated in the absence of any compound or drug were used as another control for infection (negative control). Nonspecific fluorescence was corrected by subtracting the fluorescence of unstained cells. Determinations were done by triplicate in at least two independent experiments.
The antileishmanial activity was determined according to the reduction of the percentage of fluorescent parasites determined according to the median fluorescence intensity (MFI) obtained for each experimental condition by cytometry. The parasite values for each concentration of compound were calculated by Equation (3), where the % of parasites in control well, corresponds to 100% of parasites:(3) % Parasites=(MFI exposed parasites/MFI unexposed parasites)×100
Then, the inhibition percentage was calculated with Equation (4):(4) % Inhibitors of Parasites=100−(% Parasites)
Results of antileishmanial activities were expressed as the median effective concentrations (EC50) measured by Probit method.

[3] = Cytotoxic activity, MTT method; type: cell-based; conditions: human, LC50
Description: as §1, §2, §3, §4, §5

[4] = Leishmania panamensis, U-937, 72 h

Compound	CC50 ([1]; U-937 cells, MTT, mean ± SD, Probit, read-out: LC50 (the source's name)) [µM]	EC50 [2] [µM]	CC50 ([1]; human) [µM]	SI (Selectivity Index = LC50/EC50) [2]	CC50 at 72 h [3] [µM]	EC50 [2, 4] [µM]
4-(2-Carbamoylhydrazineylidene)thiochromane-2-carboxylic acid [Compound 26c]	1160 ± 340	> 189	–	–	–	–
O=C1CC(C(=O)O)Sc2ccccc21 (stereo not drawn) [20a (-), 4-oxo-thiochroman-2-carboxylic acid]	–	53.5 ± 10.8	33 ± 1.5	0.6	–	–
CCCCOC(=O)C1CC(=O)c2ccccc2S1 (stereo not drawn) [22b (+), butyl 4-oxothiochromane-2-carboxylates]	–	368 ± 24.2	74.9 ± 52.8	0.2	–	–
CCCCOC(=O)C1CC(=O)c2ccccc2S1 (stereo not drawn) [22b (-), butyl 4-oxothiochromane-2-carboxylates]	–	53 ± 10.8	28.8 ± 4.5	0.5	–	–
Cc1ccccc1NC(=O)C1CC(=O)c2ccccc2S1 (centres unmarked) [Compound 24c, 4-Oxo-N-(o-tolyl)thiochromane-2-carboxamide]	–	–	–	< 1.2	119 ± 10.9	> 101
CCOC(=O)C1CC(=NNC(=O)c2ccccc2)c2ccccc2S1 (centres unmarked) [Compound 26a, Ethyl 4-(2-benzoylhydrazineylidene)thiochromane-2-carboxylate]	–	–	–	0.5	15.4 ± 0.2	28.5 ± 6.3
CCOC(=O)C1CC(=NNC(=O)c2ccncc2)c2ccccc2S1 (centres unmarked) [Compound 26b, Ethyl 4-(2-isonicotinoylhydrazineylidene)thiochromane-2-carboxylate]	–	–	–	0.3	15.2 ± 0.2	53.2 ± 41
